# Results from PMC5877385, “Gold nanoparticles stabilize peptide-drug-conjugates for sustained targeted drug delivery to cancer cells” (Journal of Nanobiotechnology, 2018).
# Where a SMILES comes first, the peptide text is derived from it. [ ]: non-standard residue; d: D form. The star is where a group is joined. Phe(4-N(CH2CH2Cl)2) = N[C@@H](Cc1ccc(N(CCCl)CCCl)cc1)C(=O)O; Chlorambucil = O=C(CCCc1ccc(N(CCCl)CCCl)cc1)*; X1 = Cn1c(CCCC(=O)*)nc2cc(N(CCCl)CCCl)ccc21
# Assays:
# A20 cells = experiment: Cell cytotoxicity assay (XTT); format: cell-based, murine; settings: 72 h, free drug 0-50 µM; for IC50: Mus musculus
# Experimental: To measure drug cytotoxic effect, cells were seeded into 96-wells Nunclon culture plates at 2.5 × 10^3 cells per well and grown overnight at 37 °C. The spent medium was removed and the cells cultured for 72 h in fresh medium containing either free drug, PDCs, PEG-AuNPs or PDC-PEG-AuNPs at concentrations ranging from 0 to 50 µM (drug) filtered through a 0.22 µm syringe. Cellular metabolic status, used as a measure of cell viability, was then determined by replacing the culture medium with fresh medium containing XTT reagent (50 µl/well) and the cells were re-cultured for 2 h sat 37 °C. Absorbance in the wells was measured at 450 nm and subtracted from the reference absorbance at 630 nm. Culture medium was used as background control. All experiments were performed in triplicate on three separate occasions. Data are presented as mean ± S.D.
# [1] = Biostability in liver homogenate; format: in vitro ADME; settings: pH 7.4; free PDC; 100 µl sample in 1 ml mouse liver homogenate (6 mg total protein), 37 °C, LC-MS, exponential decay fit; read-out: Biostability (liver homogenate) t½
# Experimental: Mice were sacrificed by CO2 euthanasia. Livers were removed, and rinsed in cold 0.01 M PBS buffer pH 7.4. They were transferred to 10 ml Tris-HCI, pH 7.4 and homogenized in a Potter–Elvehjem glass tissue grinder for 4 min. The tissue homogenate was centrifuged for 20 min at 4 °C, 14,000 rpm, and the supernatant was collected. Protein concentration was measured using the BCA protein assay using bovine serum albumin as a standard. The homogenate was used immediately or else stored in liquid nitrogen.
# 100 μl of each sample was added to 1 ml of liver homogenate (equivalent to 6 mg total protein). The samples were incubated at 37 °C and aliquots were taken during the different incubation period at different time intervals. The collected aliquots were immediately filtered, and analyzed by LC–MS.
# (§1) The chemo-stability of the P4-PDCs was tested at a physiological pH of 7.4, while the solutions were incubated at 37 °C. Biostability was assessed after incubation in a mouse liver homogenate. In each case aliquots were taken at selected times and analyzed by LC–MS. PDC integrity was determined by calculating the area under the curve of the PDC peak. The R^2 values of the exponential decay curves ranged from 0.97 to 0.99 for the three PDCs; the functions of these curves were used to calculate the t½ values. […] In liver homogenate (Fig. 5c), stability decayed more rapidly with half-lives ranging from 10.6 to 15.4 min. There was no significant difference in behavior between the three PDCs and no free drug was observed.
# [2] = Chemostability in phosphate buffer; format: physicochemical; settings: free PDC; 0.01 M phosphate buffer (method pH 7.2), 37 °C, LC-MS PDC peak area, exponential decay fit, two independent experiments
# Experimental: Stock solutions were prepared by dissolving 5 mg of P4-chlorambucil, P4-melphalan or P4-bendamustine coated PEG-AuNPs in 1 mL of deionized water.
# 100 μl of stock solution were diluted to 1 ml of 0.01 M phosphate buffer solution pH 7.2 and incubated at 37 °C. At designated time points an aliquot was removed and centrifuged at 5000 rpm for 5 min. The supernatant was recovered, filtered through a […] syringe and analyzed by LCMS for the presence of free drug. Results for each time point were expressed as mean % PDC integrity ± standard error, calculated from two independent experiments.
# as §1
SMILES,maximal %GI (growth inhibition) (A20 cells),IC50 (A20 cells),half-life [1],Chemostability (pH 7.4) t½ [2]
O=C(O)CCCc1ccc(N(CCCl)CCCl)cc1 [Chlorambucil],89.4%,15.8 µM,,
N[C@@H](Cc1ccc(N(CCCl)CCCl)cc1)C(=O)O [Melphalan],94.9%,9.6 µM,,
C[C@@H](O)[C@H](NC(=O)[C@H](CO)NC(=O)[C@H](Cc1c[nH]cn1)NC(=O)CCCc1nc2cc(N(CCCl)CCCl)ccc2n1C)C(=O)N1CCC[C@H]1C(=O)N[C@@H](CO)C(=O)N[C@@H](CO)C(=O)N1CCC[C@H]1C(=O)O [P4-Bendamustine] (X1-HSTPSSP-OH),,,15.4 min,19.3 mins
C[C@@H](O)[C@H](NC(=O)[C@H](CO)NC(=O)[C@H](Cc1c[nH]cn1)NC(=O)CCCc1ccc(N(CCCl)CCCl)cc1)C(=O)N1CCC[C@H]1C(=O)N[C@@H](CO)C(=O)N[C@@H](CO)C(=O)N1CCC[C@H]1C(=O)O [P4-Chlorambucil] (Chlorambucil-HSTPSSP-OH),,,12.4 min,21.5 mins
C[C@@H](O)[C@H](NC(=O)[C@H](CO)NC(=O)[C@H](Cc1c[nH]cn1)NC(=O)[C@@H](N)Cc1ccc(N(CCCl)CCCl)cc1)C(=O)N1CCC[C@H]1C(=O)N[C@@H](CO)C(=O)N[C@@H](CO)C(=O)N1CCC[C@H]1C(=O)O [P4-Melphalan] (H-[Phe(4-N(CH2CH2Cl)2)]HSTPSSP-OH),,,10.6 min,24.6 mins
Cn1c(CCCC(=O)O)nc2cc(N(CCCl)CCCl)ccc21 [bendamustine],43.1%,> 50 µM,,
